Assay results from patent US8536180B2, “Pyrimidine inhibitors of kinase activity” (AbbVie Inc., priority 2009, dated 2013).

Each compound was assayed against T1, C-terminal GST-tagged, recombinant, human IGF-1R, amino acids 954-1367 (Homo sapiens, UniProt P08069) (assay: IGF-1R homogenous time-resolved fluorescence (HTRF) in vitro kinase assay). Conditions: IGF-1R kinase, ATP 50 μM final, biotinylated peptide substrate 0.5 μM, 60 minutes at room temperature.
T1 construct: human IGF-1R, amino acids 954-1367 expressed by baculovirus in Sf21 cells; GST (C); purchased Cell Signaling Technology; host or cells: baculovirus in Sf21 cells
T1 sequence (P08069 954-1367): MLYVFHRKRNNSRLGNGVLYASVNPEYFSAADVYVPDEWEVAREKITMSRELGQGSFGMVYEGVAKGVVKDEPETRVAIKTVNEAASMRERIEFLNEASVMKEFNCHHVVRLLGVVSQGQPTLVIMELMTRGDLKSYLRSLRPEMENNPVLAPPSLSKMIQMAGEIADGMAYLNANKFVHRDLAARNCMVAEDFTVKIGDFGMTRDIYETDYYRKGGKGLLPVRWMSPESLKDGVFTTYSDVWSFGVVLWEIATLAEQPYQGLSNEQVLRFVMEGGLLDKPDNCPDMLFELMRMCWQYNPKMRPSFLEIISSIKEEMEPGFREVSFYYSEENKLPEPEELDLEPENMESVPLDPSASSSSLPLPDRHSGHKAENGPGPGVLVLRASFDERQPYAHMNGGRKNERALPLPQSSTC
Type: biochemical
Procedure: IGF-1R kinase activity was assayed by a homogenous time-resolved fluorescence (HTRF) in vitro kinase assay (Mathis, G., HTRF(R) Technology. J Biomol Screen, 1999. 4(6): p. 309-314). Specifically, 10 μL C-terminal GST-tagged, recombinant, human IGF-1R, amino acids 954-1367 expressed by baculovirus in Sf21 cells (Cell Signaling Technology) was mixed with 10 μL inhibitor (various concentrations, 2% final DMSO) and 10 μL of ATP (50 μM final concentration) in reaction buffer (50 mM HEPES, pH 7.5, 10 mM MgCl2, 2 mM MnCl2, 0.1% BSA and 1 mM DTT, 40 μL final volume). The reaction was initiated by addition of 10 μL of biotinylated peptide substrate (Biotin-Ahx-[…], 0.5 μM final concentration) in a black 384-well plate (Packard). After 60 minutes incubation at room temperature, the reaction was quenched by addition of 60 μL stop/revelation buffer to give 30 mM EDTA, 1 μg/mL streptavidin-APC (Prozyme), 50 ng/mL anti-phosphotyrosine mAb PT66-K Europium Cryptate, 30 mM HEPES, pH 7.5, 120 mM KF, 0.005% Tween-20, 0.05% BSA). The quenched reaction was allowed to stand at room temperature for 1 hour and then read in a time-resolved fluorescence detector (Envision, Perkin Elmer) at 615 nm and 665 nm simultaneously. The ratio between the signal of 615 nm and 665 nm was used in the calculation of the IC50.
An IC50 of less than 10 nM was found for `COc1ccccc1Cc1nc2ccc(-c3nc4sccn4c3-c3ccnc(Nc4ccc(N5CCC(N(C)C)CC5)cc4OC)n3)cc2[nH]1` [Example 55, N-{4-[4-(dimethylamino)piperidin-1-yl]-2-methoxyphenyl}-4-{6-[2-(2-methoxybenzyl)-1H-benzimidazol-6-yl]imidazo[2,1-b][1,3]thiazol-5-yl}pyrimidin-2-amine] in this work. An IC50 of less than 10 nM was found for `COc1cc(N2CCC(N(C)C)CC2)ccc1Nc1nccc(-c2c(-c3ccc4nc(Cc5ccccc5C)[nH]c4c3)nc3sccn23)n1` [Example 56, N-{4-[4-(dimethylamino)piperidin-1-yl]-2-methoxyphenyl}-4-{6-[2-(2-methylbenzyl)-1H-benzimidazol-6-yl]imidazo[2,1-b][1,3]thiazol-5-yl}pyrimidin-2-amine] in this work. An IC50 of less than 10 nM was found for `CN(C)Cc1ccc(Nc2nccc(-c3c(-c4ccc5nc(Cc6ccccc6)[nH]c5c4)nc4sccn34)n2)cc1` [Example 57, 4-[6-(2-benzyl-1H-benzimidazol-6-yl)imidazo[2,1-b][1,3]thiazol-5-yl]-N-{4-[(dimethylamino)methyl]phenyl}pyrimidin-2-amine] in this work. An IC50 greater than 500 nM was found for `CN(C)Cc1ccccc1Nc1nccc(-c2c(-c3ccc4nc(Cc5ccccc5)[nH]c4c3)nc3sccn23)n1` [Example 58, 4-[6-(2-benzyl-1H-benzimidazol-6-yl)imidazo[2,1-b][1,3]thiazol-5-yl]-N-{2-[(dimethylamino)methyl]phenyl}pyrimidin-2-amine] in this work. An IC50 of 101 to 500 nM was found for `O=C1CCCN1c1cccc(Nc2nccc(-c3c[nH]nc3-c3ccc4[nH]c(Cc5ccccc5Cl)nc4c3)n2)c1` [Example 59, 1-{3-[(4-{3-[2-(2-chlorobenzyl)-1H-benzimidazol-5-yl]-1H-pyrazol-4-yl}pyrimidin-2-yl)amino]phenyl}pyrrolidin-2-one] in this work. An IC50 of 10 to 50 nM was found for `CCn1cc(-c2ccnc(Nc3cccc(CN(C)C)c3)n2)c(-c2ccc3[nH]c(Cc4ccccc4OC)nc3c2)n1` [Example 60, N-{3-[(dimethylamino)methyl]phenyl}-4-{1-ethyl-3-[2-(2-methoxybenzyl)-1H-benzimidazol-5-yl]-1H-pyrazol-4-yl}pyrimidin-2-amine] in this work. An IC50 of 10 to 50 nM was found for `CCn1cc(-c2ccnc(Nc3cccc(CN(C)C)c3)n2)c(-c2ccc3[nH]c(Cc4ccccc4Cl)nc3c2)n1` [Example 61, 4-{3-[2-(2-chlorobenzyl)-1H-benzimidazol-5-yl]-1-ethyl-1H-pyrazol-4-yl}-N-{3-[(dimethylamino)methyl]phenyl}pyrimidin-2-amine] in this work. An IC50 of 10 to 50 nM was found for `CCn1cc(-c2ccnc(Nc3cccc(CN(C)C)c3)n2)c(-c2ccc3[nH]c(Nc4ccccc4)nc3c2)n1` [Example 62, 5-{4-[2-({3-[(dimethylamino)methyl]phenyl}amino)pyrimidin-4-yl]-1-ethyl-1H-pyrazol-3-yl}-N-phenyl-1H-benzimidazol-2-amine] in this work. An IC50 of 10 to 50 nM was found for `CCn1cc(-c2ccnc(Nc3cccc(CN(C)C)c3)n2)c(-c2ccc3[nH]c(Cc4ccccc4)nc3c2)n1` [Example 63, 4-[3-(2-benzyl-1H-benzimidazol-5-yl)-1-ethyl-1H-pyrazol-4-yl]-N-{3-[(dimethylamino)methyl]phenyl}pyrimidin-2-amine] in this work. An IC50 of 101 to 500 nM was found for `CCn1cc(-c2ccnc(Nc3ccccc3OC)n2)c(-c2ccc3[nH]c(Cc4ccccc4)nc3c2)n1` [Example 64, 4-[3-(2-benzyl-1H-benzimidazol-5-yl)-1-ethyl-1H-pyrazol-4-yl]-N-(2-methoxyphenyl)pyrimidin-2-amine] in this work. An IC50 of 101 to 500 nM was found for `CCn1cc(-c2ccnc(Nc3ccccc3OC)n2)c(-c2ccc3[nH]c(Cc4ccccc4OC)nc3c2)n1` [Example 65, 4-{1-ethyl-3-[2-(2-methoxybenzyl)-1H-benzimidazol-5-yl]-1H-pyrazol-4-yl}-N-(2-methoxyphenyl)pyrimidin-2-amine] in this work. An IC50 of 10 to 50 nM was found for `CCn1cc(-c2ccnc(Nc3ccc(N4CCC(N(C)C)CC4)cc3OC)n2)c(-c2ccc3[nH]c(Cc4ccccc4)nc3c2)n1` [Example 66, 4-[3-(2-benzyl-1H-benzimidazol-5-yl)-1-ethyl-1H-pyrazol-4-yl]-N-{-4-[4-(dimethylamino)piperidin-1-yl]-2-methoxyphenyl}pyrimidin-2-amine] in this work. An IC50 of 51 to 100 nM was found for `CCn1cc(-c2ccnc(Nc3ccc(N4CCC(N(C)C)CC4)cc3OC)n2)c(-c2ccc3[nH]c(Cc4ccccc4Cl)nc3c2)n1` [Example 67, 4-{3-[2-(2-chlorobenzyl)-1H-benzimidazol-5-yl]-1-ethyl-1H-pyrazol-4-yl}-N-{4-[4-(dimethylamino)piperidin-1-yl]-2-methoxyphenyl}pyrimidin-2-amine] in this work. An IC50 of 51 to 100 nM was found for `CCn1cc(-c2ccnc(Nc3ccc(N4CCC(N(C)C)CC4)cc3OC)n2)c(-c2ccc3[nH]c(Cc4ccccc4OC)nc3c2)n1` [Example 68, N-{4-[4-(dimethylamino)piperidin-1-yl]-2-methoxyphenyl}-4-{1-ethyl-3-[2-(2-methoxybenzyl)-1H-benzimidazol-5-yl]-1H-pyrazol-4-yl}pyrimidin-2-amine] in this work. An IC50 of 101 to 500 nM was found for `CCn1cc(-c2ccnc(Nc3ccc(N4CCC(N(C)C)CC4)cc3OC)n2)c(-c2ccc3[nH]c(-c4ccccc4)nc3c2)n1` [Example 69, N-{4-[4-(dimethylamino)piperidin-1-yl]-2-methoxyphenyl}-4-[1-ethyl-3-(2-phenyl-1H-benzimidazol-5-yl)-1H-pyrazol-4-yl]pyrimidin-2-amine] in this work.
